Data on 30 molecules can be found in patent publication US12030876B2, “Aryl hydrocarbon receptor (AHR) agonists and uses thereof” (Ikena Oncology, Inc., priority 2019, dated 2024).

The target in experiment [1] is T1, AHR (Mus musculus, UniProt P30561).
T1 sequence (P30561 1-848 F348L/P471L): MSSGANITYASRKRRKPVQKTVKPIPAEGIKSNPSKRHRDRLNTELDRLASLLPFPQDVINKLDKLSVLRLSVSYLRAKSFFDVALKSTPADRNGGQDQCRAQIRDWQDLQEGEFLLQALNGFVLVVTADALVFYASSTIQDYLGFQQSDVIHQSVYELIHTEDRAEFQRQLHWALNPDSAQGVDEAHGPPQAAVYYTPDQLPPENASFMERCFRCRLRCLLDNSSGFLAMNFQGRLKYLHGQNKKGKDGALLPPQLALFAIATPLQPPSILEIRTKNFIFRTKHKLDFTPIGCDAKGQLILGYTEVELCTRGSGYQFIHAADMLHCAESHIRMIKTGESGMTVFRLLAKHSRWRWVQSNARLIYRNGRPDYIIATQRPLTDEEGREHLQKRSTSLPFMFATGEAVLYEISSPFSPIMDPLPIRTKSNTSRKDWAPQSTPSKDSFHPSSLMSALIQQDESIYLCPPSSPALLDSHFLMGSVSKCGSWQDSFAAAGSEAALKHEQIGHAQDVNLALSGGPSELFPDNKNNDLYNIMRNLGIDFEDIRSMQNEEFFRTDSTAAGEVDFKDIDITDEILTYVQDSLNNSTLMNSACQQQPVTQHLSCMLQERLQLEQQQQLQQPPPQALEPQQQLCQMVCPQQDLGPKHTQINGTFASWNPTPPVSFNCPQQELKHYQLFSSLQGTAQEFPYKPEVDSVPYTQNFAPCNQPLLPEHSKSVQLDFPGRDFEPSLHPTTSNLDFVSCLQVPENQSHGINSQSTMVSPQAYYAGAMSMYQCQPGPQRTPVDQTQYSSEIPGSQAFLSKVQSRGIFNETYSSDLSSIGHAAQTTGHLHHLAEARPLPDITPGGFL
Description: DRE-Luciferase Reporter Assay, Hepa1.6 (agonist). The settings on record: Hepa1.6, Table 3; read-out: DRE-Luc Hepa1.6 - Agonist: Average EC50. The class given is cell-based, murine. As for the experimental part: DRE-Luciferase Reporter Assay
AHR binds to Dioxin Responsive Elements (DRE) upstream of genes that it activates. One measure of AHR activity is activation of a reporter gene, such as luciferase, downstream of one or multiple DRE elements. Luciferase activity reflects activation and inhibition of AHR in the cells expressing this reporter.
Murine Hepa1-6 or Hepa-1c1c7 or other murine cell line with a DRE-luciferase reporter either stably or transiently transfected are plated in media in plates (96-well, 384-well or other plates) and incubated overnight at 37 C in a CO2 incubator. Likewise, human HepG2 or other human cell line with a DRE-luciferase reporter either stably or transiently transfected are plated in media in plates (96-well, 384-well or other plates) and incubated overnight at 37 C in a CO2 incubator.
(§1) The next day, an AHR agonist compound is added. Cells are incubated for 6, 16 or 24 hours or another time point and then lysed for determination of luciferase activity as a read-out of the AHR activation. Luciferase can be measured with a commercial kit such as the Promega Luciferase kit or any kit or reagents that provide the luciferin substrate for measuring luciferase activity. The level of luciferase with only activating ligand (e.g. such as TCDD, kynurenine, ITE (2-(1H-indole-3-ylcarbonyl)-4-thiazolecarboxylic methyl ester), VAF347, BNF (beta-naphthoflavone), ICZ (6-formylindolo(3,2-b) carbazole or other AHR ligands) added is the maximum signal while the luciferase with no ligand is the minimum signal. EC50s can be determined as the concentration which activates half of the maximum luciferase activity.

The target of experiment [2] is T2, AHR (Homo sapiens, UniProt P35869).
T2 construct: endogenous in cells; host or cells: HepG2 (human), transfected with a DRE-luciferase reporter only
T2 sequence (P35869 11-848): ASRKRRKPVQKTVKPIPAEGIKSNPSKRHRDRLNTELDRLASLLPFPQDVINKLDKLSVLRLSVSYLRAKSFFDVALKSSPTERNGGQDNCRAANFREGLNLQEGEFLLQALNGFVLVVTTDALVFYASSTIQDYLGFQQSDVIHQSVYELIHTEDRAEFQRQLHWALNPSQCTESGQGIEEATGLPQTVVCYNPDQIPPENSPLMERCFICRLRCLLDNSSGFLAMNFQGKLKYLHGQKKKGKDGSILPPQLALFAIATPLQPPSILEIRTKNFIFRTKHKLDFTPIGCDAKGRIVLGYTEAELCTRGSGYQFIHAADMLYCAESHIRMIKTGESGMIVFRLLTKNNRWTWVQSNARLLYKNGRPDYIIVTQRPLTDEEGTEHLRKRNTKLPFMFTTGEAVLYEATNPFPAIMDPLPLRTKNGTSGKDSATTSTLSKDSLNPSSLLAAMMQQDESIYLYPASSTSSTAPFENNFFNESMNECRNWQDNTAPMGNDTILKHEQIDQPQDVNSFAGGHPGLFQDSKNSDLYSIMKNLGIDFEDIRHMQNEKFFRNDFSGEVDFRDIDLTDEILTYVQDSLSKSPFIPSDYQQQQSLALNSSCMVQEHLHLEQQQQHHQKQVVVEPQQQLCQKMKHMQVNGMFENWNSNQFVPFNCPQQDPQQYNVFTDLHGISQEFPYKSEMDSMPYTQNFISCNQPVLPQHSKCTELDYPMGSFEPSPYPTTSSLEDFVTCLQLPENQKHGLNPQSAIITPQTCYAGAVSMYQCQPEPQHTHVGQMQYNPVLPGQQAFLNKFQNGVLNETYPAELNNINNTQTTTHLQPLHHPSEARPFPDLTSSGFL
In words: DRE-Luciferase Reporter Assay, HepG2 (agonist). The class given is cell-based. Conditions: read-out: DRE-Luc HepG2 - Agonist: Average EC50. The method, boiled down:
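Cells carrying a stably or transiently transfected DRE-luciferase reporter, plated overnight at 37 C, then given agonist for 6, 16 or 24 h before lysis and luciferase read-out. Signal scaled between no ligand (minimum) and activating ligand alone, e.g. TCDD (maximum); EC50 = concentration giving half-maximal luciferase activity.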

Experiment [3] has as its target T1, AHR. Description: P450 CYP1A1 Luciferase Assay, Hepa1.6 (agonist). The settings on record: Hepa1.6, Table 2. It counts as cell-based, murine. As for the experimental part: P450 CYP1A1 Luciferase Assay
AHR binds to Dioxin Responsive Elements (DRE) upstream of genes that it activates. One measure of AHR activity is P450 CYP1A1 protein levels determined by measuring CYP1A1 enzyme activity using a luminogenic CYP1A1 luciferin-based substrate. Luciferase activity will reflect CYP1A1 activity resulting from activation of AHR in the cells.
Murine Hepa1-6 or Hepa-1c1c7 or other murine cell line, human HepG2 or other human cell line are plated in media (96-well, 384-well or other plates) and incubated overnight at 37 C in a CO2 incubator.
as §1, with “lysed and incubated with a CYP1A1 luciferase-based substrate (e.g. Luciferin-CEE)” for “lysed”, “3, 6, or 12 hours of another time point. Determination” for “determination”, “CYP1A1 enzyme activity” for “the AHR activation. Luciferase”, “P450 Glo CYP1A1 detection reagent” for “Luciferase kit”, “provide” for “provide the luciferin substrate”

pEC50: −log10 of the molar value. Like-named read-outs stand apart in the source and are kept apart here. Where only a bound is given, the exact number is not on record here.

Turning to `O=c1cc(-c2nsc(Nc3cccc(C(F)(F)F)c3)n2)cc[nH]1` [I-128], the pEC50 in experiment [1] is less than 6.00; in experiment [2] (HepG2, Table 3) it was more than 8.00.
For `N#Cc1cc(-c2csc(Nc3cccc(C(F)(F)F)c3)n2)c[n+]([O-])c1` [I-100] the same measures were less than 6.00 and more than 8.00.
The matching figures for `Nc1cc(-c2csc(Nc3cccc(C(F)(F)F)c3)n2)ccc1F` [I-163]: more than 8.00 and more than 8.00.
For `O=C(O)c1cccc(/N=N/c2cc(-c3csc(Nc4cccc(C(F)(F)F)c4)n3)c(F)cc2F)c1` [I-174] the same measures were 6.00 to 7.00 and 6.00 to 7.00.
On to `Nc1ccccc1-c1csc(Nc2cccc(C(F)(F)F)c2)n1` [I-177], for which the pEC50 in experiment [1] is more than 8.00; in experiment [2] (HepG2, Table 3), 7.00 to 8.00.
For `O=c1cc(-n2cnc(Nc3cccc(C(F)(F)F)c3)n2)cc[nH]1` [I-144] the same measures were less than 6.00 and 7.00 to 8.00.
For `Nc1cc(-c2csc(Nc3cccc(C(F)(F)F)c3)n2)ccn1` [I-156], the pEC50 in experiment [1] was more than 8.00; in experiment [2] (HepG2, Table 3), more than 8.00.
In the case of `FC(F)(F)c1cccc(Nc2nc(-c3cncc(Cl)c3)cs2)c1` [I-91], the negative-log EC50 (pEC50) in experiment [1] is 7.00 to 8.00; in experiment [2] (HepG2, Table 3), more than 8.00.
The matching figures for `C[N+](C)(C)CCNC(=O)N(c1cccc(C(F)(F)F)c1)c1nc(-c2cc[nH]c(=O)c2)cs1` [I-146]: less than 6.00 and more than 8.00.
Consider `N#Cc1cccc(-c2cnc(Nc3cccc(C(F)(F)F)c3)o2)c1` [I-112], for which the negative logarithm of the EC50 (pEC50) in experiment [1] is less than 6.00; in experiment [2] (HepG2, Table 3) it was more than 8.00.
The matching figures for `FC(F)(F)c1cccc(Nc2nc(-c3cncc(NNc4cncc(-c5csc(Nc6cccc(C(F)(F)F)c6)n5)c4)c3)cs2)c1` [I-175]: 6.00 to 7.00 and 6.00 to 7.00.
On to `O=C(Nc1cncc(-c2csc(Nc3cccc(C(F)(F)F)c3)n2)c1)Nc1cncc(-c2csc(Nc3cccc(C(F)(F)F)c3)n2)c1` [I-170], for which the pEC50 in experiment [1] was 7.00 to 8.00; in experiment [2] (HepG2, Table 3), 7.00 to 8.00.
`Nc1ccccc1-c1csc(Nc2ccccc2C(F)(F)F)n1` [I-172]: the pEC50 in experiment [1] was less than 6.00; in experiment [2] (HepG2, Table 3) it was 7.00 to 8.00.
Regarding `CCCOc1cc(-c2csc(Nc3cccc(C(F)(F)F)c3)n2)ccn1` [I-155], the pEC50 was less than 6.00 in experiment [1] and 7.00 to 8.00 in experiment [2] (HepG2, Table 3).
The matching figures for `O=C(O)c1cccc(/N=N/c2cc(-c3csc(Nc4cccc(C(F)(F)F)c4)n3)ccc2F)c1` [I-173]: 6.00 to 7.00 and 6.00 to 7.00.
The matching figures for `COC(=O)/C(C)=N/Nc1cccc(-c2csc(Nc3cccc(C(F)(F)F)c3)n2)c1` [I-167]: 6.00 to 7.00 and 6.00 to 7.00.
Turning to `Fc1ccc(/N=N/c2ccc(F)c(-c3csc(Nc4cccc(C(F)(F)F)c4)n3)c2)cc1-c1csc(Nc2cccc(C(F)(F)F)c2)n1` [I-169], the pEC50 in experiment [1] was 6.00 to 7.00; in experiment [2] (HepG2, Table 3) it was 6.00 to 7.00.
In the case of `[O-][n+]1cc(Cl)cc(-c2csc(Nc3cccc(C(F)(F)F)c3)n2)c1` [I-107], the pEC50 in experiment [1] is less than 6.00; in experiment [2] (HepG2, Table 3) it was more than 8.00.
On to `N#Cc1cncc(-c2csc(Nc3cccc(C(F)(F)F)c3)n2)c1` [I-87], for which the pEC50 in experiment [1] is less than 6.00; in experiment [2] (HepG2, Table 3), more than 8.00.
For `O=[N+]([O-])c1cc(-c2csc(Nc3cccc(C(F)(F)F)c3)n2)c[n+]([O-])c1` [I-120] the same measures were 6.00 to 7.00 and more than 8.00.
For `N#Cc1cccc(-n2cnc(Nc3cccc(C(F)(F)F)c3)n2)c1` [I-145] the same measures were less than 6.00 and more than 8.00.
For `O=C(O)c1cc(/N=N/c2ccc(F)c(-c3csc(Nc4cccc(C(F)(F)F)c4)n3)c2)ccc1O` [I-179] the same measures were less than 6.00 and 6.00 to 7.00.
As to `O=C(O)c1cc(/N=N/c2cccc(-c3csc(Nc4cccc(C(F)(F)F)c4)n3)c2)ccc1O` [I-162], the negative-log EC50 (pEC50) in experiment [1] was less than 6.00; in experiment [2] (HepG2, Table 3) it was less than 6.00.
With `COc1cc(-n2cnc(Nc3cccc(C(F)(F)F)c3)n2)ccn1` [I-143], the pEC50 was less than 6.00 in experiment [1] and 6.00 to 7.00 in experiment [2] (HepG2, Table 3).
As for `C[N+](C)(C)CCCNC(=O)N(c1cccc(C(F)(F)F)c1)c1nc(-c2cccc(Cl)c2)cs1` [I-24], the pEC50 in experiment [3] was less than 6.00; in experiment [2] (HepG2, Table 2) it was 7.00 to 8.00.
The matching figures for `Clc1cccc(Nc2nc(-c3cccc(Cl)c3)cs2)c1` [Compound P-5]: less than 6.00 and more than 8.00.
Turning to `O=C(c1cccc(-c2csc(Nc3cccc(C(F)(F)F)c3)n2)c1)N1CCOCC1` [I-43], the pEC50 is less than 6.00 in experiment [3] and 6.00 to 7.00 in experiment [2] (HepG2, Table 2).
For `CN1CCN(C(=O)c2cccc(-c3csc(Nc4cccc(C(F)(F)F)c4)n3)c2)CC1` [I-48] the same measures were less than 6.00 and less than 6.00.
For `FC(F)(F)Oc1cccc(Nc2nc(-c3cccc(Cl)c3)cs2)c1` [I-13] the same measures were less than 6.00 and more than 8.00.
`O=C(O)c1cccc(-c2csc(Nc3cccc(C(F)(F)F)c3)n2)c1` [I-33]: the pEC50 is less than 6.00 in experiment [3] and 6.00 to 7.00 in experiment [2] (HepG2, Table 2).
